Source: a melting point compilation (Tetko et al.; mined from patent text by program, amines drawn as free bases though some values may be those of a salt)

Row | Compound | melting point [°C]
1 | COc1c(C(O)CNC(C)(C)Cc2c(C)c(C)cc(C)c2C)ccc(O)c1O (centres undefined) | 165 to 168
2 | O=C(O)CCc1cn(Cc2ccc(OCc3csc(-c4ccccc4)n3)cc2)cc1-c1ccccc1 | 111 to 112
3 | CCCCCCc1c(F)cc(C2C=CC(CCCCC)=CC2)cc1F (centres undefined) | 35
4 | CCCCNC(=O)ON1C(C)(C)CC(OC(=O)c2ccccc2)CC1(C)C | 126 to 127
5 | CCN(N)c1cnn(-c2cccc(C(F)(F)F)c2)c(=O)c1 | 108 to 110
6 | CC1CC1n1cc(C(=O)O)c(=O)c2cc(F)c(N3CCNCC3)cc21 (centres undefined) | 110 to 120
7 | CCCCCCCC[C@H](O)C(=O)O | 70 to 72
8 | O=C1Cc2c(cccc2C(=O)O)Sc2ccccc21 | 230 to 232
9 | CCCCCCCCCCCCCC(=O)Nc1ccc(Cl)c(NC2=NN(c3c(Cl)cc(Cl)cc3Cl)C(=O)C2SCc2ccccc2)c1 (centres undefined) | 182 to 185
10 | Oc1ccc(-c2nc(COc3ccc(CCCn4ccnc4)cc3)co2)cc1 | 182 to 183
11 | CCc1ccc(Oc2cc3c(cc2Cl)C=C(C(=O)O)C(C(F)(F)F)O3)cc1 (centres undefined) | 196
12 | CCN(CC)Cc1ccc2nc(-c3ccccc3F)cc(OCc3ccccc3)c2c1 | 51.2 to 51.5
13 | COC(=O)CCc1ccc(NC(=O)OC(C)(C)C)cc1 | 72 to 73.5
14 | CCCCCCC/C=C/C(=O)NCC(C)C | 42 to 45
15 | O=C(O)CCOc1cccc(/C=C/c2nc3ccccc3s2)c1 | 177 to 178
16 | CCC(=O)OC1c2ccccc2C(=O)N1c1ccc2ccc(Cl)nc2n1 (centres undefined) | 160
17 | CCC(=O)OC1=C(c2nnc(-c3ccccc3)o2)N(C)S(=O)(=O)c2ccccc21 | 143 to 146
18 | CN(C)c1cc(CO)ncn1 | 137 to 139
19 | FC(F)(F)c1ccc(Nc2ccccc2C=C(Br)Br)cc1 | 74 to 75
20 | O[C@H]1CC[C@H](n2cnc(-c3ccc(F)cc3)c2-c2ccnc(Nc3ccccc3)n2)CC1 | 204 to 206

Row | Compound | melting point [°C]
21 | O=C1C=C(c2cccc(Cl)c2)CN(Cc2ccccc2)C1 | 143 to 145
22 | O=C1NCc2ccccc2N1 | 142
23 | Cc1c(Cc2ccc(F)cc2)c(=O)oc2cc(OC(=O)N(C)c3ccccc3)ccc12 | 185 to 186
24 | CCOC(=O)c1cn(-c2nc3ccccc3[nH]2)cn1 | 252 to 253
25 | CCNc1nc(N)nc(-c2ccccc2)c1-c1ccc(=O)n(C(C)C)n1 | 208 to 209
26 | COC(=O)c1ccc(C(=O)C2C(=O)N(C(N)=O)c3ccc(Cl)cc32)s1 (centres undefined) | 219 to 221
27 | COCC(C)Nc1cc(-c2ccnc(Nc3cccc(Cl)c3)n2)cc(Cl)n1 (centres undefined) | 128 to 129
28 | CNC(=NCCS(=O)Cc1nccs1)NC#N (centres undefined) | 110
29 | C(=C1CCC2(CC1)OCCO2)c1ccc(OCc2ccccc2)cc1 | 56 to 57
30 | CCc1cn(C2CC(I)C(COC(c3ccccc3)(c3ccccc3)c3ccccc3)O2)c(=O)[nH]c1=O (centres undefined) | 93 to 98
31 | Cc1ccc(C(=O)Nc2cccnc2)c(Nc2ccc3cn[nH]c3c2)n1 | > 280
32 | CCNC(=O)c1ccc(C=C2CC3CCC(C2)N3CCC(C(=O)N(C)C)(c2ccccc2)c2ccccc2)cc1 | 137 to 139
33 | O=C1C(Cc2ccccc2)C(C(F)(F)F)=Nc2ccccc2N1Cc1ccccc1 (centres undefined) | 150 to 151
34 | Nc1cc(Cl)cc(Cl)c1I | 61 to 63
35 | O=C(Nc1ccccc1C(c1ccc(O)cc1)c1ccc(O)cc1)C1CCCCC1 | 220 to 223
36 | C=C(CN1C(=O)[C@H]2CCCN2C(=O)c2ccccc21)c1ccc(C(=O)Nc2ccccc2N)cc1 | 160 to 162
37 | CC(C)C(=O)O[C@@H]1C[C@H](C(=O)Nc2ccc(N3CCOCC3=O)cc2)N(C(=O)Nc2ccc(Cl)cc2)C1 | 129
38 | CCOC(=O)c1ncn(-c2cc(C(F)(F)F)ccc2[N+](=O)[O-])c1C | 140
39 | CCCCc1nc2cc[nH]c(=O)c2n1Cc1ccc(-c2ccccc2C#N)cc1 | 165
40 | COc1ccc(C(=O)Nc2cc(-c3c(-c4cccc(C)c4)nc4ccc(N(C)C)nn34)ccn2)cc1 | 193 to 194

Row | Compound | melting point [°C]
41 | C=CCOC1C(OC2C(COCc3ccccc3)OC(OC)C(OCc3ccccc3)C2OCc2ccccc2)OC(CO)C(O)C1OCc1ccccc1 (centres undefined) | 119 to 120
42 | Cc1ccc2c(N)c(Cl)ccc2n1 | 196 to 197
43 | Clc1ccccc1CN1CC=C(c2cc3ccccc3s2)CC1 | 105 to 106
44 | CCC(=O)c1cnc2c(OCCO)cccc2c1Nc1ccccc1C | 174 to 176
45 | Nc1nc2cccnc2c2c1nc(CF)n2CC1(O)CCOC1 (centres undefined) | 209 to 210
46 | Cc1noc(NS(=O)(=O)c2ccccc2-c2ccc(-c3ncccn3)cc2)c1C | > 210
47 | CSc1ccc(CNC(=O)c2sc(NC(C)=O)nc2CCc2ccc(NC(=O)OC(C)(C)C)cc2)cc1 | 182 to 183
48 | CCCCCCCCCCCCCCc1ccc(CCCCCC)c(OCC(O)CO)c1 (centres undefined) | 46 to 47
49 | C=C(C)C(=O)OCCOc1ccc(OCCOC(=O)c2ccc(O)c(Cl)c2)cc1 | 105 to 106
50 | COc1ccc(-c2nc3ccccc3nc2-c2ccc(OC)cc2)cc1 | 148
51 | CC(=O)CCc1ccc2c(c1)Cc1cc(N)ccc1-2 | 116 to 117
52 | NC(=Nc1ccc(CCCC(=O)Oc2cccc(Nc3ccccc3)c2)cc1)c1cccs1 | 110 to 112
53 | Cc1cccc2c1N(CC(=O)N1CC3CCC(CC3)C1)C(=O)C(NC(=O)Nc1cccc(C(=O)OC(C)(C)C)c1)N=C2c1ccccc1F (centres undefined) | 230 to 232
54 | O=C(O)c1cccc(-c2cccc3oc(Cc4cccc(C(F)(F)F)c4)nc23)c1 | 165 to 166
55 | CCOC(=O)c1cc(C)n(-c2cccc(Br)c2)c1-c1ccccc1 | 118 to 119
56 | CC1(C)COC(c2ccccc2-c2ccc(-c3ccccc3)cc2)=N1 | 95 to 97
57 | O=c1[nH]c2c(Cl)ncnc2n1CCN1CCC(Nc2nc3ccccc3n2Cc2ccc(F)cc2)CC1 | 266
58 | CCC1(O)NC(=O)C=C1C (centres undefined) | 182 to 186

The remaining lines, values ahead:

Row | melting point [°C] | Compound
59 | 208 to 210 | CC(C)C1COCc2nc3c(N)nc4ccc(O)cc4c3n21 (centres undefined)
60 | 207 to 208 | CCOC(=O)c1cnc2c(c(C)nc3cc(C)nn32)c1O
61 | 186 to 189 | O=C(O)c1cccnc1C1=NC(=O)C2(CCCCC2)N1
62 | 169 to 170 | COc1cc2c(cc1C(F)(F)F)N(C(=O)Nc1ccc(CN(C)C)cc1)CC2
63 | 90 to 92 | CCCCOc1cc2ncnc(Nc3cccc(CC)c3)c2cc1OCCOC
64 | 227 to 229 | C=C1c2cc(C(=O)O)ccc2CCC1n1ccnc1 (centres undefined)
65 | 126 to 127 | O=C(c1ccc(I)cc1)N1CCCCC1
66 | 54 to 57 | COC1(c2cc(F)cc(Sc3ccc(C(F)(F)c4ccc(F)cc4)cc3)c2)CCOCC1
67 | 173 to 174 | CCN(CC)CCNC(=O)c1cc(Cl)c(NC(=O)c2ccc3ccccc3c2)cc1OC
68 | 302 | COc1ccc(C(=O)Nc2c(Cl)cncc2Cl)c2c1oc1ccccc12
69 | 142 to 144 | CC(=O)NC[C@H]1CN(c2ccc3c(c2)CCS(=O)(=O)CC3)C(=O)O1
70 | 196 to 198 | COc1cc(F)ccc1CCN1c2nc(-c3ccncn3)cc(=O)n2CCC1(C)C
71 | 144 to 146 | CCCn1nc2c(N)nc3ccccc3c2c1CCCCS(=O)(=O)N(C)C
72 | 243 to 244 | O=C1CC(NC(=O)c2c[nH]c3ccccc23)CCCN1 (centres undefined)
73 | 118 | CC1(C)CC(O)c2cc(N)ccc21 (centres undefined)
74 | 172 to 173 | CCCc1nc2c(N)nc3ccccc3c2n1CCC(=O)N1CCOCC1
75 | 193 to 194 | CS(=O)(=O)c1ccc(N2CCC3(CC2)Nc2cc(Cl)ccc2C(=O)O3)cc1
76 | 262 to 264 | COc1cc2c(=O)c(S(C)=O)nn(C)c2cc1OC (centres undefined)
77 | 173 to 174 | Cc1nc2cc(F)c(C)cc2c(=O)[nH]1
78 | 159 to 160 | CCOC(=O)c1cc2ccc(OC)cc2n1CCNC(C)=O
79 | 170 | FC(F)(Cc1c[nH]c2ccc(-n3cnnc3)cc12)CN1CCC(OCc2ccccc2)CC1

Row | melting point [°C] | Compound
80 | 177 to 178 | Cc1c(NC(=O)c2ccc(OCc3ccc(F)cc3)cc2)ccc2cc(CN3CCCC3)cnc12
81 | 117 to 118 | CCOC(=O)c1ccc2c(c1)N=C(C)c1ccc(OC)cc1O2
82 | 220 | COc1cc(N)c(Cl)cc1C(=O)NN1CCN(C)CC1
83 | 263 to 264 | COc1cc2c(=O)c(S(C)=O)cn(C)c2cc1F (centres undefined)
84 | 182 to 186 | Cc1cc(Cl)nnc1NS(=O)(=O)c1cccc2c(N(C)C)cccc12
85 | 248 to 250 | Cc1cc(I)cc2[nH]c(=O)oc12
86 | 131 to 133 | COc1cc(S(=O)(=O)N2CCNCC2)cc(OC)c1OC
87 | 107 to 109 | Cc1ccc(C)c(OC(C)(C)C(=O)O)c1
88 | 150 to 155 | Nc1cnc(NCCSCc2csc(CN3CCCCC3)c2)[nH]c1=O
89 | 162 to 164 | COc1ccc2c(c1)-c1c(OC)ccc3c1C(C2=O)N(C)CC3 (centres undefined)
90 | 137 to 141 | C1=C(c2ccc3ccccc3c2)CCC2(C1)CCNCC2
91 | 200 to 202 | O=C(CNS(=O)(=O)c1ccc2ccccc2c1)NCC(NC(=O)C1CCN(c2ccncc2)CC1)C(=O)C1CCCCN1 (centres undefined)
92 | 124 to 125 | Cc1ccc(C2OC(=O)N(C(=O)NN3CCOCC3)C2C)cc1 (centres undefined)
93 | 120 to 122 | COc1cc2c(cc1N1CCN(CC3Cc4ccccc4C3)CC1)OC=CCO2
94 | 88.7 to 94.9 | COC(=O)C(Cc1cccc(C2(OC)CCOCC2)c1)c1nc(-c2ccccc2)c(-c2ccc(S(N)(=O)=O)cc2)o1 (centres undefined)
95 | 213 to 220 | CN1CCC(CNc2ncc3cc(-c4ccccc4Cl)c(=O)[nH]c3n2)CC1
96 | 107 to 116 | Cc1nc(C2(C)CC2(Cl)Cl)nn1-c1c(Cl)cc(C(F)(F)F)cc1Cl (centres undefined)
97 | 164 | COc1cc(NC(NC2CCC2)=C(C#N)S(=O)(=O)c2ccc(Cl)cc2)cc(OC)c1
98 | 184 to 185 | CCN(CC)c1ccc(N=c2scc(-c3ccc(Cl)c(S(=O)(=O)N(C)C)c3)n2C)cc1
99 | 133 to 135 | CC(C)(C)OC(=O)NN1CCC(C(=O)O)CC1
